Data published in patent US8906826B2, “Herbicidal compositions comprising 4-amino-3-chloro-5-fluoro-6-(4-chloro-2-fluoro-3-methoxyphenyl) pyridine-2-carboxylic acid or a derivative thereof and imidazolinones” (Dow AgroSciences, LLC, priority 2012, dated 2014).

How the values were obtained:
[1] = tested on: LEFCH; assay: Postemergence foliar-applied, direct seeded rice weeds (Example I); format: in vivo, Leptochloa chinensis (L.) Nees
Description: Seeds or nutlets of the desired test plant species were planted in a soil matrix prepared by mixing a loam or sandy loam soil (e.g., 28.6 percent silt, 18.8 percent clay, and 52.6 percent sand, with a pH of about 5.8 and an organic matter content of about 1.8 percent) and calcareous grit in an 80 to 20 ratio. The soil matrix was contained in plastic pots with a volume of 1 quart and a surface area of 83.6 cm^2. When required to ensure good germination and healthy plants, a fungicide treatment and/or other chemical or physical treatment was applied. The plants were grown for 8-22 days in a greenhouse with an approximate 14 h photoperiod which was maintained at about 29° C. during the day and 26° C. during the night. Nutrients (Peters Excel® 15-5-15 5-Ca 2-Mg and iron chelate) were applied in the irrigation solution as needed and water was added on a regular basis. Supplemental lighting was provided with overhead metal halide 1000-Watt lamps as necessary. The plants were employed for testing when they reached the first through fourth true leaf stage.
Treatments consisted of the acid or esters of 4-amino-3-chloro-5-fluoro-6-(4-chloro-2-fluoro-3-methoxy-phenyl)pyridine-2-carboxylic acid (Compound A), each formulated as an SC (suspension concentrate), and various herbicidal components alone and in combination. Forms of compound A were applied on an acid equivalent basis.
Other herbicidal components were applied on an acid equivalent basis and include acetolactate synthase (ALS)-inhibiting herbicides (imidazolinone chemical class) imazethapyr ammonium salt formulated as Newpath®, imazamox ammonium salt formulated as Beyond®, imazapic ammonium salt formulated as Plateau®, imazapyr isopropylamine salt formulated as Arsenal®, imazamethabenz-methyl (technical material) and imazaquin isopropylamine salt formulated as Scepter®/Imagine®.
(§1) Treatment requirements were calculated based upon the rates being tested, the concentration of active ingredient or acid equivalent in the formulation, and a 12 mL application volume at a rate of 187 L/ha.
For treatments comprised of formulated compounds, measured amounts of compounds were placed individually in 25 mL glass vials and diluted in a volume of 1.25% (v/v) Agri-Dex® crop oil concentrated to obtain 12× stock solutions. […] Application solutions were prepared by adding an appropriate amount of each stock solution (e.g., 1 mL) and diluted to the appropriate final concentrations with the addition of 10 mL of an aqueous mixture of 1.25% (v/v) crop oil concentrate so that the final spray solutions contained 1.25+/−0.05% (v/v) crop oil concentrate. […]
For treatments comprised of formulated and technical compounds, weighed amounts of the technical materials were placed individually in 25 mL glass vials and dissolved in a volume of 97:3 v/v acetone/DMSO to obtain 12× stock solutions, and measured amounts of the formulated compounds were placed individually in 25 mL glass vials and diluted in a volume of 1.5% (v/v) crop oil concentrate or water to obtain 12× stock solutions. […] Application solutions were prepared by adding an appropriate amount of each stock solution (e.g., 1 mL) and diluted to the appropriate final concentrations with the addition of an appropriate amount of an aqueous mixture of 1.5% (v/v) crop oil concentrate so that the final spray solutions contained 1.25% (v/v) crop oil concentrate. As required, additional water and/or 97:3 v/v acetone/DMSO was added to individual application solutions so that the final acetone and DMSO concentrations of the application solutions being compared were 8.1% and 0.25%, respectively.
All stock solutions and applications solutions were visually inspected for compound compatibility prior to application. […]

[2] = tested on: AVEFA; assay: Postemergence foliar-applied, general weed control (Example III); format: in vivo, Avena fatua L.
Method: Seeds or nutlets of the desired test plant species were planted in Sun Gro Metro-Mix® 360 planting mixture, which typically has a pH of about 6.0 to about 6.8 and an organic matter content of about 30 percent, in plastic pots with a surface area of 84.6 cm^2 and a volume of 560 cubic centimeters (cm^3). When required to ensure good germination and healthy plants, a fungicide treatment and/or other chemical or physical treatment was applied. The plants were grown for 7-31 days (d) in a greenhouse with an approximate 15 hour (h) photoperiod which was maintained at about 23-29° C. during the day and about 22-28° C. during the night. Nutrients (Peters Excel® 15-5-15 5-Ca 2-Mg) and water were added on a regular basis and supplemental lighting was provided with overhead metal halide 1000-Watt lamps as necessary. The plants were employed for testing when they reached the first, second, or third true leaf stage.
as §1
Treatments consisted of the acid or esters of 4-amino-3-chloro-5-fluoro-6-(4-chloro-2-fluoro-3-methoxy-phenyl)pyridine-2-carboxylic acid (Compound A), each formulated as an SC, and various herbicidal components alone and in combination. Forms of compound A were applied on an acid equivalent basis. […]
For treatments comprised of formulated compounds, measured amounts of compounds were placed individually in 25 mL glass vials and diluted in a volume of 1.25% (v/v) Agri-Dex® crop oil concentrated to obtain 12× stock solutions. […]
The treated plants and control plants were placed in a greenhouse as described above and watered by sub-irrigation to prevent wash-off of the test compounds. After approximately 3 weeks, the condition of the test plants as compared with that of the untreated plants was determined visually and scored on a scale of 0 to 100 percent where 0 corresponds to no injury or growth inhibition and 100 corresponds to complete kill. […]

COCc1cnc(C2=NC(C)(C(C)C)C(=O)N2)c(C(=O)O)c1.N (racemic) [Imazamox ammonium, ammonium (±)-2-[4,5-dihydro-4-methyl-4-(1-methylethyl)-5-oxo-1H-imidazol-2-yl]-5-(methoxymethyl)-3-pyridinecarboxylate]
Visual Weed Control (%) - 25 DAA LEFCH Obs ([1]; Imazamox ammonium 11.2 gae/ha): 20%

COc1c(Cl)ccc(-c2nc(C(=O)OCc3ccccc3)c(Cl)c(N)c2F)c1F [Compound A Benzyl Ester, benzyl ester of 4-amino-3-chloro-5-fluoro-6-(4-chloro-2-fluoro-3-methoxy-phenyl)pyridine-2-carboxylic acid]
Visual Weed Control (%) - 25 DAA LEFCH Obs ([1]; Compound A Benzyl Ester 8.75 gae/ha): 70% | Visual Weed Control (%) - 25 DAA LEFCH Obs ([1]; Compound A Benzyl Ester 17.5 gae/ha): 70%

COc1c(Cl)ccc(-c2nc(C(=O)O)c(Cl)c(N)c2F)c1F [Compound A Acid, 4-amino-3-chloro-6-(4-chloro-2-fluoro-3-methoxyphenyl)-5-fluoropyridine-2-carboxylic acid]
Visual Weed Control (%) - 25 DAA LEFCH Obs ([1]; Compound A Acid 4.38 gae/ha): 0% | Visual Weed Control (%) - 25 DAA LEFCH Obs ([1]; Compound A Acid 8.75 gae/ha): 10% | Visual Weed Control (%) - 25 DAA LEFCH Obs ([1]; Compound A Acid 17.5 gae/ha): 45% | Visual Weed Control (%) - 20 DAA LEFCH Obs ([1]; Compound A Acid 19.4 gae/ha): 5% | Visual Weed Control (%) - 19 DAA AVEFA Obs ([2]; Compound A Acid 29 gae/ha): 10%

CCc1cnc(C2=NC(C)(C(C)C)C(=O)N2)c(C(=O)O)c1.N (racemic) [Imazethapyr ammonium, ammonium (±)-2-[4,5-dihydro-4-methyl-4-(1-methylethyl)-5-oxo-1H-imidazol-2-yl]-5-ethyl-3-pyridinecarboxylate]
Visual Weed Control (%) - 25 DAA LEFCH Obs ([1]; Imazethapyr ammonium 8.75 gae/ha): 20% | Visual Weed Control (%) - 19 DAA AVEFA Obs ([2]; Imazethapyr ammonium 70 gae/ha): 80%

Cc1cnc(C2=NC(C)(C(C)C)C(=O)N2)c(C(=O)O)c1.N (racemic) [Imazapic ammonium, ammonium (±)-2-[4,5-dihydro-4-methyl-4-(1-methylethyl)-5-oxo-1H-imidazol-2-yl]-5-methyl-3-pyridinecarboxylic acid]
Visual Weed Control (%) - 25 DAA LEFCH Obs ([1]; Imazapic ammonium 17.5 gae/ha): 50% | Visual Weed Control (%) - 20 DAA LEFCH Obs ([1]; Imazapic ammonium 35 gae/ha): 85% | Visual Weed Control (%) - 19 DAA AVEFA Obs ([2]; Imazapic ammonium 35 gae/ha): 70%
